target: T1, ITK (Homo sapiens, UniProt Q08881); experiment: ITK enzyme assay (Caliper or LCMS peptide phosphorylation); format: biochemical; details: purified ITK (Invitrogen PV3875), 20 μM ATP, Ki by Morrison's quadratic equation
T1 construct: purchased Invitrogen PV3875
T1 sequence (Q08881 1-620): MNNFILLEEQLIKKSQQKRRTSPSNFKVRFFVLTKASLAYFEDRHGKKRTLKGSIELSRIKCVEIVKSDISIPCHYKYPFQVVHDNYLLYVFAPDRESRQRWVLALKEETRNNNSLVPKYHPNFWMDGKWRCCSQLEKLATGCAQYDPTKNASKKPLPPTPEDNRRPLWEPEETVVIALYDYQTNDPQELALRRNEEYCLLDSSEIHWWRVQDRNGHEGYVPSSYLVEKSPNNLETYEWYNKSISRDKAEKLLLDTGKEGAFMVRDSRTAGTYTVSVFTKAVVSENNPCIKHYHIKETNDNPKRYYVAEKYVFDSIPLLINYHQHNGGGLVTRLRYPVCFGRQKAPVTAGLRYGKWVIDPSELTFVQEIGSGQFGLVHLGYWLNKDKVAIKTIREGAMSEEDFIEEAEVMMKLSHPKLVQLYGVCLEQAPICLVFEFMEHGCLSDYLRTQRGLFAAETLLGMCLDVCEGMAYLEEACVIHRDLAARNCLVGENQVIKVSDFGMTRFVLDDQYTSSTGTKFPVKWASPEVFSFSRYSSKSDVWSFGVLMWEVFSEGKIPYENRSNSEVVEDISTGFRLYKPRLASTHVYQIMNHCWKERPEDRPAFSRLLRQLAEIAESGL
Procedure, shortened: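 Ki values come from Morrison quadratic fits of activity versus inhibitor concentration, adjusted for ATP-competitive inhibition against ATP/Km,app. Substrate and phosphopeptide from purified ITK reactions were resolved either microfluidically (Caliper, EDTA stop) or by LC-MS MRM (TCA stop).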

SMILES	Ki
O=C(Nc1cnn(Cc2ccccc2)c1)c1n[nH]c2c1CC1(COC1)C2 [Example 82, N-(1-benzyl-1H-pyrazol-4-yl)-4,6-dihydro-1H-spiro[cyclopenta[c]pyrazole-5,3′-oxetane]-3-c arboxamide]	0.061 µM
CC1(C)CCc2c(C(=O)Nc3cnn(Cc4ccnc(N)c4)c3)n[nH]c2C1 [Example 111, N-(1-((2-aminopyridin-4-yl)methyl)-1H-pyrazol-4-yl)-6,6-dimethyl-4,5,6,7-tetrahydro-1H-indazole-3-carboxamide]	0.008 µM
CC1(C)CCc2c(C(=O)Nc3cnn(Cc4cccnc4N)c3)n[nH]c2C1 [Example 112, N-(1-((2-aminopyridin-3-yl)methyl)-1H-pyrazol-4-yl)-6,6-dimethyl-4,5,6,7-tetrahydro-1H-indazole-3-carboxamide]	0.006 µM
O=C(Nc1cnn(Cc2ccccc2)c1)c1n[nH]c2c1CCC1(CSC1)C2 [Example 118, N-(1-benzyl-1H-pyrazol-4-yl)-1,4,5,7-tetrahydrospiro[indazole-6,3′-thietane]-3-carboxamide]	0.034 µM
CN(CCC(c1ccccc1)n1cc(NC(=O)c2n[nH]c3c2CCC(C)(C)C3)cn1)S(C)(=O)=O (stereo not drawn) [Example 122, 6,6-dimethyl-N-(1-(3-(N-methylmethylsulfonamido)-1-phenylpropyl)-1H-pyrazol-4-yl)-4,5,6,7-tetrahydro-1H-indazole-3-carboxamide]	0.004 µM
CN1CCC2(CCc3c(C(=O)Nc4cnn(Cc5ccccc5)c4)n[nH]c3C2)C1=O (stereo not drawn) [Example 123b, N-(1-benzyl-1H-pyrazol-4-yl)-1′-methyl-2′-oxo-1,4,5,7-tetrahydrospiro[indazole-6,3′-pyrrolidine]-3-carboxamide]	4 µM
O=C(Nc1cnn(Cc2ccccc2)c1)c1n[nH]c2c1CCCCC2 [Example 124, N-(1-benzyl-1H-pyrazol-4-yl)-1,4,5,6,7,8-hexahydrocyclohepta[c]pyrazole-3-carboxamide]	0.14 µM
CC1(C)CCc2c(C(=O)Nc3cnn(C(c4ccccc4)C4CS(=O)(=O)CCN4)c3)n[nH]c2C1 (stereo not drawn) [Example 128a, N-(1-((1,1-dioxidothiomorpholin-3-yl)(phenyl)methyl)-1H-pyrazol-4-yl)-6,6-dimethyl-4,5,6,7-tetrahydro-1H-indazole-3-carboxamide]	0.042 µM
CC12Cc3[nH]nc(C(=O)Nc4cnn(C(c5ccccc5)C5CCS(=O)(=O)CC5)c4)c3CC1C2(F)F (stereo not drawn) [Example 141, N-(1-((1,1-dioxidotetrahydro-2H-thiopyran-4-yl)(phenyl)methyl)-1H-pyrazol-4-yl)-5,5-difluoro-5a-methyl-1,4,4a,5,5a,6-hexahydrocyclopropa[f]indazole-3-carboxamide]	< 0.0001 µM

Reference: patent US20160326142A1, “PYRAZOLE CARBOXAMIDE COMPOUNDS, COMPOSITIONS AND METHODS OF USE” (Genentech, Inc., priority 2012, published 2016)
